Source: paper PMC4213378, “Pharmacokinetics and Efficacy of the Spleen Tyrosine Kinase Inhibitor R406 after Ocular Delivery for Retinoblastoma” (Pharmaceutical Research, 2014)

Experiments:
[1] = Plasma pharmacokinetics after oral or subconjunctival administration; type: in vivo, mouse; details: local (subconjunctival), mice
Description: For oral delivery of R788, the target dose of 25 mg/kg R788 was administered by oral gavage as a 4 mM solution in 0.01 N citrate buffer, pH 6 ([9]). For subconjunctival administration, R788 was prepared at a concentration of 4 mM in 2% PEG-800 and filtered through a 0.22 μm filter prior to use (see Table S1). R788 was also administered subconjunctivally as a suspension at a concentration of 25 mM in 10% 2-hydroxylpropyl-β-cyclodextrin (HPβCD, Sigma-Aldrich). For subconjunctival administration, R406 phenylsulfonate salt was administered at a concentration of 800–900 μM as a cosolvent solution in a formulation of 5% Cremaphor-eL, 0.5% ethanol, 0.2% Tween 80 and 94.3% PBS, filtered through a 0.22 μm filter prior to use (see Table S2). R406 phenylsulfonate salt was also administered subconjunctivally at a dose of 31.4 mM solution in DMSO. R406 free base was administered subconjunctivally at a concentration of 6.5 mM as a 25% castor oil (Sigma-Aldrich) emulsion. This emulsion was prepared by mixing castor oil: ethanol (1:1) solution of R406 (approx. 35 mM), in vacuo evaporation of the ethanol, and centrifugation to remove any excess R406, then emulsifying the R406 oil phase in an aqueous phase comprised of Cremaphor-eL, Tween 80 and PBS (final composition of the emulsion: 25% castor oil, 5% Cremaphor-eL, 0.2% Tween-80, 69.8% PBS) by probe sonication. For intravitreal injection, R788 solution was prepared by filtering a 0.12 mM (120 μM) solution of R788 in saline through a 0.22 μm filter. […] For topical delivery, 25–30 mM suspensions were prepared in 5% HPβCD. R406 or R788 concentration in all formulations was determined by UPLC prior to study (in cases where formulation was filtered before administration, concentration was determined post-filtering) Table I.
For the systemic delivery study R788 was administered as a single bolus dose (25 mg/kg, 10 mL/kg volume) by oral gavage. For the subconjunctival administration study R788 or R406 (10 µL of formulation) was injected into the subconjunctival space of an anesthetized mouse using a Hamilton microliter syringe (Hamilton company, Reno NV). For the intravitreal administration study, R788 (5 μL of […] in saline) was administered to each eye via direct injection. To perform the intravitreal injection, mice were anesthetized, a small incision between the sclera and the cornea was created with a […] needle, and the R788 was injected into the vitreous using a Hamilton microliter syringe. For the topical administration study, R406 (2 μL of 25–30 mM suspension) was applied as a drop to the surface of each eye of an anesthetized mouse.
At serial time points (0.5, 1, 2, 4, and 8 h post-injection, n = 3 for each time point), blood was collected by terminal cardiac puncture after isoflurane anesthesia. Whole-blood samples were centrifuged immediately at 10,000×g for 5 min at 4°C to separate plasma. Once the cardiac puncture and blood collection was completed, the animal was perfused with 10 mL of saline and euthanized by cervical dislocation. Eyes were removed, rinsed in PBS, gently patted dry, then rinsed and dried again. Eyes were dissected and vitreous was collected. Plasma and vitreous samples were put on dry ice immediately after collection and stored at −80°C until analysis. For quantitative analysis methods and assay validation methods and results, see Supplementary Information.
Plasma and vitreous concentration time data were analyzed using non-compartmental analysis in WinNonlin 6.2 (Pharsight, Mountain View, CA), providing PK parameters including Cmax (maximum observed concentration), Tmax (time to reach maximum observed concentration), AUC (area under the concentration time curve) and MRT (mean residence time). AUC and AUMC (area under the concentration time first moment curve) values were estimated with the linear trapezoidal method, with parameters calculated using mean concentration values at each time point. […]

RB355 cells = test: EdU incorporation (DNA synthesis) in RB355 cells; type: cell-based; details: 5 μM R406, 0-72 h exposure
Description: To determine if the lack of evidence of efficacy of subconjunctival R406 in a solution formulation was due to suboptimal ocular exposure, we performed a pharmacokinetic experiment. Briefly, 10 μl of R406 solution formulation was delivered to each eye of 15 mice and the plasma and vitreous were harvested at different time points (0.5, 1, 2, 4, and 8 h). The concentration of R406 was measured at each time point in each tissue and the concentration of drug was plotted as a function of time (Fig. 2). The 4 h and 8 h data are not shown, as the majority of R406 concentrations in these samples were BLOQ. […] Importantly, the maximal concentration achieved (0.05 μM) was well below the concentration required to kill the most sensitive retinoblastoma cell line (RB355 in culture, Fig. S3). RB355 cells in culture were treated with DMSO, 1, 2.5, or 5 μM of R406 for varied exposure durations (0, 6, 12, 24, 48 and 72 h). […] Incorporation of 5-ethynyl-2′-deoxyuridine (EdU) was used to detect DNA synthesis. […] Viability of RB355 cells in culture is reduced to 50% of the viability of DMSO treated cells when exposed to 2.5 μM R406 for an exposure duration between 24 and 48 h or 5 μM R406 for an exposure duration between 12 and 24 h.
RB335 cells were seeded in 6-well dishes. […] Luminescence was read after 15 min on an Envision plate reader (Perkin Elmer). […]

[2] = co-solvent solution 0.88 mM, 8.8 nmol per eye

SMILES	Cmax ([1]; DMSO 31.4 mM, 314 nmol per eye)	Plasma AUClast ([1]; DMSO 31.4 mM, 314 nmol per eye)	Plasma Dose normalized AUC ([1]; DMSO 31.4 mM, 314 nmol per eye)	Plasma Tlast ([1]; DMSO 31.4 mM, 314 nmol per eye)	Plasma Tmax ([1]; DMSO 31.4 mM, 314 nmol per eye)	Cmax [1, 2]	Plasma AUClast [1, 2]	Plasma Dose normalized AUC [1, 2]	Plasma Tlast [1, 2]	Plasma Tmax [1, 2]	proportion of cells that incorporated EdU (RB355 cells)
COc1cc(Nc2ncc(F)c(Nc3ccc4c(n3)NC(=O)C(C)(C)O4)n2)cc(OC)c1OC.O=S(=O)(O)c1ccccc1 [R406 phenylsulfonate salt]	370 nM	0.298 µM·h	0.5 nM∙h/nmol	4 h	30 min	79 nM	0.0429 µM·h	2.4 nM∙h/nmol	1 h	30 min	
COc1cc(Nc2ncc(F)c(Nc3ccc4c(n3)NC(=O)C(C)(C)O4)n2)cc(OC)c1OC [R406]											decreased with increasing exposure time
